Measured values reported in patent US20240426776A1, “RAPID DIFFERENTIATION OF ANTIBIOTIC-SUSCEPTIBLE AND -RESISTANT BACTERIA THROUGH MEDIATED EXTRACELLULAR ELECTRON TRANSFER” (priority 2021, published 2024).
≈ marks a conversion by molar mass, not a printed value. Like-named read-outs stand apart in the source and are kept apart here. Marks after values point to notes of the source that are not given here.

Tests used:
[1] = system: Gram-negative 1 AR55 and Gram-negative 2 AR58; assay: READAS operator blinded test; format: cell-based; details: for ASIn: imipenem increased from 2× to 20× (12 to 120 μg/mL), OD600=0.1; for READAS susceptibility (first symbol of cell): imipenem up to 20× (120 μg/mL)
Experimental: Tests were conducted for which the species or resistance phenotype was not known beyond the fact that one set was a Gram-positive and the other Gram-negative, and the antibiotics to be tested were oxacillin and imipenem, respectively. The isolates were provided as coded streak plates. Because the species were unknown, the breakpoint concentration of oxacillin and imipenem were estimated from the known breakpoints of the four previously tested strains (as shown in Table 1; 6 μg/mL for oxacillin, S. aureus and 6 μg/mL imipenem for Gram-negative strains). Following the decision methodology for determining antibiotic susceptibility and resistance of READAS, the strains were first tested with 2× the resistance breakpoint concentration (12 μg/mL oxacillin or imipenem) and the ASI2 was measured. This was increased up to 24× the resistance breakpoint concentration. If ASI2≥0.4 then the strain was considered susceptible. […] If neither strain achieved an ASI2≥0.4, 24× the resistance breakpoint concentration was tested and the ASI24 was measured.
As another example method of operation, operator blinded tests were conducted using susceptible and resistant strains of Gram-positive and -negative bacteria. Because the species identification was unknown, […] oxacillin was chosen as the estimated resistance breakpoint for the Gram-positive strain and 6 μg/mL imipenem was initially chosen as the resistance breakpoint for the Gram-negative strain. The stains selected for this example method of operation include Gram-positive 1 ATCC 29213, Gram-positive 2 BAA-1026, Gram-negative 1 AR55 and Gram-negative 2 AR58 with cultures of OD600=0.1, for simplicity.
Both Gram-positive strains were correctly classified using 2×(12 μg/mL oxacillin) in <120 min (97±45 min and 103±33 min). The Gram-negative strains were also correctly classified after increasing concentrations of imipenem from 2× to 20×(12 to 120 μg/mL imipenem). […] These phenotypic results were confirmed with results of standard procedure known to those skilled in the art and are included in Table 4 below, wherein READAS(S) susceptibility was defined by an ASIn≥0.4; (R) resistant was defined by an ASIn<0.4; analysis time shown in minutes. The standard procedure established susceptibility or resistance, MIC in μg/mL, and analysis time shown in hours.

[2] = system: Staphylococcus aureus (strains 29213 and 43300); details: cited from earlier work
[3] = system: Staphylococcus aureus (strains 29213 and 43300); assay: Microdilution antibiotic susceptibility assay (MIC, CLSI guidelines); format: cell-based; details: for MIC: Staphylococcus aureus, MH media, oxacillin: 30° C., 18-24 h, 2% NaCl, read-out: estimated minimum inhibitory concentration from this study
Experimental: Testing for S. aureus susceptibility to oxacillin differed with incubation at 30° C. for 18-24 h in MH media supplemented with 2% NaCl.
Values listed in Table 2 below include the estimated minimum inhibitory concentration from this study (μg/mL), the determination of(S) sensitive or (R) resistant microbes according to CLSI criteria, and the CLSI guidelines (μg/mL) for the species being tested. Empty cells were not evaluated.

Row | MIC ([3]; strain 29213) [µg/mL] | MIC ([3]; strain 43300) [µg/mL] | Compound | ASIn ([1]; Gram-negative 1 (AR55)) | READAS susceptibility (first symbol of cell) ([1]; Gram-negative 1 (AR55)) | ASIn ([1]; Gram-negative 2 (AR58)) | READAS susceptibility (first symbol of cell) ([1]; Gram-negative 2 (AR58)) | CLSI guidelines (resistance breakpoint) for the species [2] [µg/mL] | sensitive or resistant according to CLSI criteria ([3]; strain 29213) | sensitive or resistant according to CLSI criteria ([3]; strain 43300)
1 | – | – | C[C@@H](O)[C@H]1C(=O)N2C(C(=O)O)=C(SCCN=CN)C[C@H]12 [Imipenem, imipenem] | 0.1 ± 0.23^c | R/R ((R) resistant was defined by an ASIn<0.4) | 0.99 ± 0.01^c | S/S (READAS(S) susceptibility was defined by an ASIn≥0.4) | – | – | –
2 | 1 (≈ 2.14 µM) | 128 (≈ 274 µM) | NC[C@H]1O[C@H](O[C@H]2[C@H](O)[C@@H](O[C@H]3O[C@H](CO)[C@@H](O)[C@H](N)[C@H]3O)[C@H](N)C[C@@H]2N)[C@H](N)C[C@@H]1O [Tobramycin, tobramycin] | – | – | – | – | 16 | S | R
